Assay results reported in patent publication US6670446B1, “N1 modified glycopeptides” (Eli Lilly and Company, priority 1998, dated 2003).

What was measured:
Format in all cases: cell-based
[1] = test system: Resistant Enterococcus faecium and faecalis; assay: MIC, standard broth micro-dilution assay, Resistant; conditions: geometric mean of 4-6 isolates
Procedure: (§1) The antibacterial efficacy of the present compounds is illustrated by Table III. The minimal inhibitory concentrations (MICs) were determined using a standard broth micro-dilution assay.

[2] = test system: Sensitive Enterococcus faecium and faecalis; assay: MIC, standard broth micro-dilution assay, Sensitive; conditions: geometric mean of 4-6 isolates
Procedure: as §1

[3] = test system: Staphylococcus aureus 446; assay: MIC, standard broth micro-dilution assay, SA 446
Procedure: as §1

[4] = test system: Staphylococcus aureus 489; assay: MIC, standard broth micro-dilution assay, SA 489
Procedure: as §1

[5] = test system: Staphylococcus aureus 447; assay: MIC, standard broth micro-dilution assay, SA 447
Procedure: as §1

[6] = test system: Staphylococcus aureus X400; assay: MIC, standard broth micro-dilution assay, SA X400
Procedure: as §1

[7] = test system: Staphylococcus aureus X778; assay: MIC, standard broth micro-dilution assay, SA X778
Procedure: as §1

[8] = test system: Staphylococcus aureus 491; assay: MIC, standard broth micro-dilution assay, SA 491
Procedure: as §1

[9] = test system: Staphylococcus aureus S13E
Procedure: as §1

[10] = test system: Staphylococcus aureus SA1199; assay: MIC, standard broth micro-dilution assay, SA 1199
Procedure: as §1

[11] = test system: Staphylococcus aureus SA1199A; assay: MIC, standard broth micro-dilution assay, SA 1199A
Procedure: as §1

[12] = test system: Staphylococcus haemolyticus 105; assay: MIC, standard broth micro-dilution assay, SH 105
Procedure: as §1

[13] = test system: Staphylococcus haemolyticus 415; assay: MIC, standard broth micro-dilution assay, SH 415
Procedure: as §1

[14] = test system: Staphylococcus epidermidis 270; assay: MIC, standard broth micro-dilution assay, SE 270
Procedure: as §1

Enterococcus faecium 180 = assay: MIC, standard broth micro-dilution assay, EF 180
Procedure: as §1

[15] = test system: Enterococcus faecium 180-1; assay: MIC, standard broth micro-dilution assay, EF 180-1
Procedure: as §1

[16] = test system: Enterococcus faecalis 2041; assay: MIC, standard broth micro-dilution assay, EF 2041
Procedure: as §1

[17] = test system: Enterococcus faecalis 276; assay: MIC, standard broth micro-dilution assay, EF 276
Procedure: as §1

[18] = test system: Enterococcus gallinarum 245; assay: MIC, standard broth micro-dilution assay, EG 245
Procedure: as §1

[19] = test system: Haemophilus influenzae RD; assay: MIC, standard broth micro-dilution assay, HFRD
Procedure: as §1

Escherichia coli EC14 = assay: MIC, standard broth micro-dilution assay, EC 14
Procedure: as §1

Compound | minimal inhibitory concentration (MIC), Resistant [1] | minimal inhibitory concentration (MIC), Sensitive [2] | minimal inhibitory concentration (MIC), SA 446 [3] | minimal inhibitory concentration (MIC), SA 489 [4] | minimal inhibitory concentration (MIC), SA 447 [5] | minimal inhibitory concentration (MIC), SA X400 [6] | minimal inhibitory concentration (MIC), SA X778 [7] | minimal inhibitory concentration (MIC), SA 491 [8] | minimal inhibitory concentration (MIC), SA S13E [9] | minimal inhibitory concentration (MIC), SA 1199 [10] | minimal inhibitory concentration (MIC), SA 1199A [11] | minimal inhibitory concentration (MIC), SH 105 [12] | minimal inhibitory concentration (MIC), SH 415 [13] | minimal inhibitory concentration (MIC), SE 270 [14] | minimal inhibitory concentration (MIC), EF 180 (Enterococcus faecium 180) | minimal inhibitory concentration (MIC), EF 180-1 [15] | minimal inhibitory concentration (MIC), EF 2041 [16] | minimal inhibitory concentration (MIC), EF 276 [17] | minimal inhibitory concentration (MIC), EG 245 [18] | minimal inhibitory concentration (MIC), HFRD [19] | further results
CC1OC(OC2C(Oc3c4cc5cc3Oc3ccc(cc3Cl)[C@@H](O)[C@@H](NC(=O)c3ccc(-c6ccccc6)cc3)C(=O)N[C@@H](CC(N)=O)C(=O)N[C@H]5C(=O)N[C@H]3C(=O)NC(C(=O)N[C@H](C(=O)O)c5cc(O)cc(O)c5-c5cc3ccc5O)[C@H](OC3CC(C)(N)C(O)C(C)O3)c3ccc(c(Cl)c3)O4)OC(CO)C(O)C2O)CC(C)(N)C1O (stereo partly drawn) [Example 1, N^1-(p-phenylbenzoyl)desleucylA82846B] | >128 | 4 | 1 | 0.5 | 0.25 | 0.5 | 0.125 | 0.5 | 0.25 | 0.125 | ≦.06 | 2 | 4 | 0.5 | 64 | 0.125 | 0.125 | 0.125 | 2 | no growth | minimal inhibitory concentration (MIC), EC 14 (Escherichia coli EC14): >64
CC(C)CC(N)C(=O)NC1C(=O)NC(CC(N)=O)C(=O)NC2C(=O)NC3C(=O)NC(C(=O)NC(C(=O)O)c4cc(O)cc(O)c4-c4cc3ccc4O)C(OC3CC(C)(N)C(O)C(C)O3)c3ccc(c(Cl)c3)Oc3cc2cc(c3OC2OC(CO)C(O)C(O)C2O)Oc2ccc(cc2Cl)C1O [Example 37, N^1-D-leucine derivative of desepivancosaminyl-desleucylA82846B] | >32 | 0.87 | 0.5 | 0.25 | 1 | 0.25 | 0.25 | 0.5 | 0.25 | 0.5 | 0.125 | 0.25 | 4 | 0.5 | >64 | 0.25 | 0.5 | 0.25 | 0.5 | 64 | minimal inhibitory concentration (MIC), EC 14 (Escherichia coli EC14): >64
CC(C)CC(NCc1ccc(-c2ccccc2)cc1)C(=O)NC1C(=O)NC(CC(N)=O)C(=O)NC2C(=O)NC3C(=O)NC(C(=O)NC(C(=O)O)c4cc(O)cc(O)c4-c4cc3ccc4O)C(OC3CC(C)(N)C(O)C(C)O3)c3ccc(c(Cl)c3)Oc3cc2cc(c3OC2OC(CO)C(O)C(O)C2OC2CC(C)(N)C(O)C(C)O2)Oc2ccc(cc2Cl)C1O [Example 34, N^1-[N-(p-phenylbenzyl)-D-leucine] derivative of desleucylA82846B] | 38 | 0.44 | 0.125 | ≦.06 | 0.125 | ≦.06 | ≦.06 | ≦.06 | ≦.06 | 0.125 | ≦.06 | ≦.06 | 4 | 0.25 | 2 | ≦.06 | 0.25 | ≦.06 | ≦.06 | 64 | minimal inhibitory concentration (MIC), EC 14 (Escherichia coli EC14): >64
CCCCCCNC(CC(C)C)C(=O)NC1C(=O)NC(CC(N)=O)C(=O)NC2C(=O)NC3C(=O)NC(C(=O)NC(C(=O)O)c4cc(O)cc(O)c4-c4cc3ccc4O)C(OC3CC(C)(N)C(O)C(C)O3)c3ccc(c(Cl)c3)Oc3cc2cc(c3OC2OC(CO)C(O)C(O)C2OC2CC(C)(N)C(O)C(C)O2)Oc2ccc(cc2Cl)C1O [Example 39, N^1-(N-n-hexyl-D-leucine) derivative of desleucylA82846B] | 45 | 0.38 | ≦.06 | ≦.06 | 0.5 | ≦.06 | ≦.06 | ≦.06 | 0.125 | 0.125 | ≦.06 | 0.5 | 2 | 0.25 | 2 | no growth | ≦.06 | ≦.06 | 0.5 | no | minimal inhibitory concentration (MIC), EC 14 (Escherichia coli EC14): >64
CC1OC(OC2C(Oc3c4cc5cc3Oc3ccc(cc3Cl)[C@@H](O)[C@@H](NC(=O)[C@H]3CCCN3C(=O)OC(C)(C)C)C(=O)N[C@@H](CC(N)=O)C(=O)N[C@H]5C(=O)N[C@H]3C(=O)NC(C(=O)N[C@H](C(=O)O)c5cc(O)cc(O)c5-c5cc3ccc5O)[C@H](OC3CC(C)(N)C(O)C(C)O3)c3ccc(c(Cl)c3)O4)OC(CO)C(O)C2O)CC(C)(N)C1O (stereo partly drawn) [Example 24, N^1-(N-BOC-D-proline) derivative of desleucylA82846B] | >128 | 4 | 4 | 2 | 4 | 2 | 1 | 1 | 2 | 2 | 1 | 16 | 32 | 2 | >64 | 1 | 1 | 1 | 8 | >64 | minimal inhibitory concentration (MIC), EC 14 (Escherichia coli EC14): >64
